From US20250051805A1, “METHODS” (Commonwealth Scientific and Industrial Research Organisation, priority 2021, published 2025)

Columns and labels:
[1] = system: E. coli expressing the A. marina VHPO gene; assay: Bromoform production by E. coli expressing A. marina VHPO with 1,3-dicarbonyl substrates of Table 4; format: cell-based, Escherichia coli; settings: 1 mM substrate, 100 mM H2O2, 24 hours room temperature; FIG. 8
Description: A sample with no additional substrate was also run as a control experiment. Samples (1 mL) were incubated in sealed tubes at room temperature for 24 hours. 10 μL samples from each were withdrawn and added to 1 mL brine to improve phase separation16 and placed in a 20 mL GC vial, which were then sealed with magnetic screw caps (Agilent). The head space of each sample was analyzed by solid phase microextraction (SPME) GC-MS.
To test for bromoform production E. coli cells were resuspended in 1 mL water/100 mL culture volume and 20% v/v of this cell suspension was added to a solution of substrate listed in Table 4 in addition to 100 mM HEPES (pH 7.4), 20 mM KBr, 1 mM Na3VO4, and 100 mM H2O2. Samples (1 mL) were incubated in sealed tubes at room temperature for 24 hours. 10 μL samples from each were withdrawn and added to 1 mL brine in a GC vial before sealing. The head space of each sample was analysed by solid phase microextraction (SPME) GC/MS as above. Bromoform was quantified by comparison with a standard curve prepared from authentic samples of bromoform as described above.

[2] = system: E. coli transformed to express VHPO; assay: Bromoform biosynthesis in growing E. coli cultures expressing VHPO with inhibitors or oleic acid; format: cell-based, Escherichia coli; settings: for production of bromoform in culture: 0.1% oleic acid, 1% tergitol, with amino-triazole to inhibit catalase; for bromoform observed in culture: 0.5 g/L tannic acid together with 10 mM 3-amino-1,2,4-triazole, 18 hours
Description: (§1) VHPO was expressed in E. coli isolate BL21 (DE3) as described above. Alongside IPTG (0.2 mM) the culture was also supplemented with 50 mM KBr, 1 mM Na3VO4, 10 mM 3-amino,1,2,4-triazole, and 0.5 g/L tannic acid or 0.1% oleic acid (emulsified with 1% tergitol (Merck, Ma USA)). Typically, 10 mL LB cultures were grown in 50 mL tubes with the lids closed. Vented tubes led to the loss of bromoform by evaporation. Cells were harvested by centrifugation and resuspended in 1 mL of brine (6 M NaCl), transferred into 20 mL headspace GC vials and sealed with a magnetic screw cap before analysis by SPME-GC-MS.
This strategy utilizes tannic acid to inhibit FabG to promote the accumulation acetoacyl-acyl-carrier-proteins (Wu et al., 2010), alongside 3-amino-1,2,4-triazol to inhibit catalase and promote the accumulation of H2O2(Meir and Yagil, 1985). FabG is β-ketoacyl-ACP reductase [EC 1.1.1.100], an enzyme that catalyses the reduction of acetoacyl-acyl carrier proteins during fatty acid synthesis. Catalase consumes the intracellular H2O2 which is required for VHPO activity. Both inhibitors were added to cultures E. coli transformed to express VHPO upon induction with IPTG. The VHPO gene from the marine cyanobacterium Acaryochloris marina MBIC110174 was synthesized by Epoch Life Science Inc. (Tx, USA) using the published gene sequence (GenBank Accession CP000828-nucleotides 5020736-5018817). This gene sequence was codon optimized for E. coli expression and cloned into expression vector pACYCDuet1 under the regulatory control of a LacI repressor and T7 promoter and terminator sequences. Cell growth was allowed to continue for 18 hours in the presence of these molecules with the addition of KBr and Na3VO4, before harvesting the cells by centrifugation and analysis of bromoform levels.
as §1, with “Alongside” for “VHPO was expressed in E. coli isolate BL21 (DE3) as described above. Alongside”

[3] = system: S. cerevisiae BY4741 transformed with pRS-ePST1-AmVHPO; assay: Bromoform synthesis by S. cerevisiae with peroxisome-targeted VHPO in SDUGGO media; format: cell-based, Saccharomyces cerevisiae; settings: 0.1% oleic acid together with 3-amino-1,2,4-triazol
Description: 10 mL seed cultures of were inoculated with a single colony of BY4741 transformed with pRS-ePST1-AmVHPO in SD and grown at 220 rpm, 30° C. overnight. These were used to inoculate 10 mL cultures of SDUGGO media (uracil (0.67% yeast nitrogenous base without amino acids, 0.192% Merck yeast synthetic dropout medium supplement without uracil, 10% glycerol, 0.1% glucose, 100 mM KBr, 1 mM Na3VO4, 100 mM MOPS (pH 6.5), 0.1% oleic acid emulsified in 1% tergitol) at an initial OD600 of 2.0, and incubated for a further 24 hours at 220 rpm, 30° C. As with E. coli, samples were grown in 50 mL tubes with the lids closed to minimize the loss of bromoform by evaporation. Cells were harvested by centrifugation and resuspended in 1 mL of brine (6 M NaCl), transferred into 20 mL headspace GC vials and sealed with a magnetic screw cap before analysis by SPME-GC-MS.
With this plasmid in hand, the media was adapted to allow for maximum flux through beta-oxidation, incorporating both oleic acid to induce β-oxidation and glycerol as a non-repressing carbon source. A small amount of glucose (0.1%) was also included to stimulate initial cell growth, alongside Mops buffer (pH 6.5), which improved bromoform production compared with unbuffered cultures. KBr and Na3VO4 were also added to allow for VHPO activity.

[4] = biological target: T1, VHPO extracted from Corallina officinalis (Corallina officinalis, UniProt Q8LLW7); assay: Bromoform synthesis by extracted enzyme; format: biochemical; settings: 0.1 U VHPO, 10 mM substrate, 50 mM KBr, 50 mM H2O2
T1 construct: VHPO extracted from Corallina officinalis (Sigma); purchased Sigma; host or cells: extracted from the red alga Corallina officinalis (natural source)
T1 sequence (Q8LLW7 1-598): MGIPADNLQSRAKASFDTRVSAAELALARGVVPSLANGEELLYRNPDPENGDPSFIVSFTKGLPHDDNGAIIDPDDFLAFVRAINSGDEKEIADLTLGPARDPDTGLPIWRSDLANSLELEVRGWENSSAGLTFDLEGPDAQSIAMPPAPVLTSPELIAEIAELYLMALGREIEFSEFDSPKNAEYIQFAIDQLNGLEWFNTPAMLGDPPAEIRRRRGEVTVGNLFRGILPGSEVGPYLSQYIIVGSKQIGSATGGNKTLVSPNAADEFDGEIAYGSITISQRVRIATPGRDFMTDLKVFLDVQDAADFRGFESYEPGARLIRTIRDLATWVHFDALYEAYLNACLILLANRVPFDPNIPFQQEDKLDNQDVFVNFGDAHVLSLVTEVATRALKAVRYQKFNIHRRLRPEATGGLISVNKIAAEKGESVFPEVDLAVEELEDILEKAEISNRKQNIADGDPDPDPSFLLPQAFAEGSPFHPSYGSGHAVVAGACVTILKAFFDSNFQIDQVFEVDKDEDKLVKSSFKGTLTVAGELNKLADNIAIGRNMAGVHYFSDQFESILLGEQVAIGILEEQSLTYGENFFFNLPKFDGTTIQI
Description: The whole reaction (100 μL) was transferred to a GC-Headspace vial and left at room temperature until analysis by SPME-GCMS as before. Relative bromoform levels were assessed as described above.

[5] = cited from earlier work
[6] = system: E. coli expressing the A. marina VHPO gene; assay: Bromoform production by E. coli cells expressing A. marina VHPO with Table 3 substrates (SPME-GC/MS); format: cell-based, Escherichia coli; settings: 1 mM substrate, 50 mM H2O2, 24 hours room temperature; compared with the other samples of Table 3
Description: Transformed E. coli were then grown in LB with 30 μg/mL chloramphenicol at 37° C. 220 rpm, until OD600 ˜0.6. IPTG 0.2 mM was then added and the cultures transferred to 28° C. with shaking at 220 rpm for a further 18 hours. Cells were harvested by centrifugation and kept at −20° C. before further use.
To test for bromoform production E. coli cells were resuspended in 1 mL water/100 mL culture volume and 20% v/v of this cell suspension was added to a solution of substrate listed below in Table 3, 100 mM HEPES (pH 7.4), 20 mM KBr, 1 mM Na3VO4, and 50 mM H2O2. Samples (100 μL) were incubated in sealed GC vials at room temperature for 24 hours. The head space of each sample was analysed by solid phase microextraction (SPME) GC/MS using a 7890A series gas chromatograph, a 5975C inert XL MSD mass selective detector and a MPS2 Gerstel multipurpose autosampler. Bromoform was identified in samples by comparison of the retention time with an authentic standard (Sigma, USA) and by mass spectral matching using the NIST/EPA/NIH Mass Spectral Library (version 2014). Relative bromoform quantities were measured by integration of the m/z=250 signal in extracted ion chromatograms generated using Agilent Mass Hunter software (version 10.0).

[7] = system: E. coli expressing the A. marina VHPO gene; assay: Time course of bromoform production from acetylacetone by the E. coli cell suspension with repeated H2O2 addition; format: cell-based, Escherichia coli
Description: It was hypothesized that with sufficient hydrogen peroxide supply full conversion to bromoform could be achieved. To this end an additional reaction was set up with 10% E. coli cell suspension 100 mM HEPES (pH 7.4), 100 mM KBr, 1 mM Na3VO4, and 400 mM H2O2 added to initiate the reaction, then again after 2 and 4 hours. 10 μL of this reaction was sampled at 0, 20, 60, 120, 180, 240, and 360 minutes, the reaction was stopped by addition of 1 mL of ice cold brine and samples were stored in sealed GC vials at −20° C. before analysis by SPME-GC/MS as above. Bromoform was quantified by comparison with a standard curve prepared from authentic samples of bromoform, added to control samples (identical to the reaction, except containing no bromide), to account for matrix effects. The time course and standard curve is shown below in FIG. 7.

CCC(=O)CC(=O)CC [3,5-heptanedione]
bromoform production [1]: increase in bromoform production

Nc1nc[nH]n1 [3-amino-1,2,4-triazol]
production of bromoform in culture [2]: trace amounts
bromoform observed in culture [2]: only observed when both inhibitors were added
bromoform detected in the cell pellet [3]: only when both oleic acid and 3-amino-1,2,4-triazol were added

CC1(C)CC(=O)CC(=O)C1 [5,5-dimethyl-1,3-cyclohexanedione]
bromoform production [1]: increase in bromoform production
increase in bromoform concentration relative to acetone ([4]; listed as dimedone): 51 fold
increase in bromoform concentration relative to acetone ([4]; listed as dimidone): up to 50 fold
pKa (H2O solvent reference) [5]: 5.2 (Brodwell, personal

CC(=O)CC(C)=O [acetylacetone]
increase in bromoform production [6]: 10 fold
amount of bromoform synthesised ([7]; 400 mM H2O2 added at start and again after 2 and 4 hours): 5 mg/mL
conversion to bromoform (yield based on acetylacetone) ([7]; after three hours, 400 mM H2O2 added at start and again after 2 and 4 hours): 97%
part of acetylacetone converted rapidly to bromoform ([7]; initial phase of the reaction): Approximately half
bromoform production [1]: increase in bromoform production

CCOC(=O)CC(C)=O [ethyl acetoacetate]
bromoform production [1]: increase in bromoform production
pKa (H2O solvent reference) [5]: 10.7 (Brodwell, personal

CCCCCCCC/C=C\CCCCCCCC(=O)O [oleic acid]
production of bromoform in culture [2]: trace amounts
bromoform detected in the cell pellet [3]: only when both oleic acid and 3-amino-1,2,4-triazol were added

O=C(OC[C@H]1O[C@@H](OC(=O)c2cc(O)c(O)c(OC(=O)c3cc(O)c(O)c(O)c3)c2)[C@H](OC(=O)c2cc(O)c(O)c(OC(=O)c3cc(O)c(O)c(O)c3)c2)[C@@H](OC(=O)c2cc(O)c(O)c(OC(=O)c3cc(O)c(O)c(O)c3)c2)[C@@H]1OC(=O)c1cc(O)c(O)c(OC(=O)c2cc(O)c(O)c(O)c2)c1)c1cc(O)c(O)c(OC(=O)c2cc(O)c(O)c(O)c2)c1 [tannic acid]
bromoform observed in culture [2]: only observed when both inhibitors were added
